Data taken from the NIST ThermoML archive (doi:10.1016/j.jct.2012.09.004).

Tests used:
[1] = wn = mass fraction of the nth substance listed; conditions: Pendant drop shape
[2] = refractive index (Na D-line) (dimensionless); wn = mass fraction of the nth substance listed; conditions: 101 kPa, Liquid, Standard Abbe refractometry
[3] = Pendant drop shape
[4] = refractive index (Na D-line) (dimensionless); conditions: 101.33 kPa, Liquid, Standard Abbe refractometry

CCCCCCCCCCCCCC[P+](CCCCCC)(CCCCCC)CCCCCC.[Br-] [tetradecyltrihexylphosphonium bromide] + O
Conditions | refractive index | surface tension liquid-gas [mN/m]
[1], 298.1 K, w2 = 0.0665 | – | 31.4
[1], 307.9 K, w2 = 0.0665 | – | 30.35
[1], 318.1 K, w2 = 0.0665 | – | 29.64
[1], 328.1 K, w2 = 0.0665 | – | 28.95
[1], 338.9 K, w2 = 0.0665 | – | 28.2
[1], 344.2 K, w2 = 0.0665 | – | 27.91
[2], 298.15 K, w2 = 0.065 | 1.4782 | –
[2], 303.15 K, w2 = 0.065 | 1.47646 | –
[2], 308.15 K, w2 = 0.065 | 1.47465 | –
[2], 313.15 K, w2 = 0.065 | 1.47289 | –
[2], 318.15 K, w2 = 0.065 | 1.47115 | –
[2], 323.15 K, w2 = 0.065 | 1.46939 | –
[2], 328.15 K, w2 = 0.065 | 1.46765 | –
[2], 333.15 K, w2 = 0.065 | 1.46587 | –
[2], 338.15 K, w2 = 0.065 | 1.46414 | –
[2], 343.15 K, w2 = 0.065 | 1.46244 | –
[2], 348.15 K, w2 = 0.065 | 1.46078 | –
[2], 353.15 K, w2 = 0.065 | 1.45926 | –

CCCCCCCCCCCCCC[P+](CCCCCC)(CCCCCC)CCCCCC.[Cl-] [trihexyl(tetradecyl)phosphonium chloride]
Conditions | refractive index | surface tension liquid-gas [mN/m]
[3], 298.6 K | – | 30.6
[3], 308 K | – | 30.1
[3], 318 K | – | 29.3
[3], 328.1 K | – | 28.6
[3], 338.3 K | – | 27.8
[3], 343.3 K | – | 27.5
[4], 283.15 K | 1.48794 | –
[4], 288.15 K | 1.48635 | –
[4], 293.15 K | 1.48471 | –
[4], 298.15 K | 1.48309 | –
[4], 303.15 K | 1.48142 | –
[4], 308.15 K | 1.47973 | –
[4], 313.15 K | 1.47796 | –
[4], 318.15 K | 1.4757 | –
[4], 323.15 K | 1.47387 | –
[4], 328.15 K | 1.4721 | –
[4], 333.15 K | 1.47029 | –
[4], 338.15 K | 1.46854 | –
[4], 343.15 K | 1.46677 | –
[4], 348.15 K | 1.46504 | –
[4], 353.15 K | 1.4634 | –

CCCCCCCCCCCCCC[P+](CCCCCC)(CCCCCC)CCCCCC.[Cl-] [trihexyl(tetradecyl)phosphonium chloride] + O
w2 = 0.1334
Conditions | refractive index | surface tension liquid-gas [mN/m]
[1], 298.6 K | – | 30.81
[1], 308 K | – | 30.01
[1], 318.3 K | – | 29.2
[1], 328.7 K | – | 28.45
[1], 342.7 K | – | 27.43
[2], 298.15 K | 1.46283 | –
[2], 303.15 K | 1.46133 | –
[2], 308.15 K | 1.45953 | –
[2], 313.15 K | 1.45768 | –
[2], 318.15 K | 1.45595 | –
[2], 323.15 K | 1.45425 | –
[2], 328.15 K | 1.45266 | –
[2], 333.15 K | 1.45124 | –
[2], 338.15 K | 1.44998 | –
[2], 343.15 K | 1.44892 | –
[2], 348.15 K | 1.44798 | –
[2], 353.15 K | 1.4471 | –

CCCCCCCCCC(=O)[O-].CCCCCCCCCCCCCC[P+](CCCCCC)(CCCCCC)CCCCCC [trihexyltetradecylphosphonium decanoate]
Conditions | refractive index | surface tension liquid-gas [mN/m]
[3], 298 K | – | 29
[3], 307.9 K | – | 28.5
[3], 318 K | – | 27.8
[3], 328.5 K | – | 27.2
[3], 338 K | – | 26.6
[3], 343 K | – | 26.2
[4], 283.15 K | 1.47754 | –
[4], 288.15 K | 1.47586 | –
[4], 293.15 K | 1.47413 | –
[4], 298.15 K | 1.47242 | –
[4], 303.15 K | 1.47069 | –
[4], 308.15 K | 1.46896 | –
[4], 313.15 K | 1.46722 | –
[4], 318.15 K | 1.46548 | –
[4], 323.15 K | 1.46341 | –
[4], 328.15 K | 1.46165 | –
[4], 333.15 K | 1.46002 | –
[4], 338.15 K | 1.45828 | –
[4], 343.15 K | 1.4566 | –
[4], 348.15 K | 1.45497 | –
[4], 353.15 K | 1.45327 | –

CCCCCCCCCC(=O)[O-].CCCCCCCCCCCCCC[P+](CCCCCC)(CCCCCC)CCCCCC [trihexyltetradecylphosphonium decanoate] + O
w2 = 0.1526
Conditions | refractive index | surface tension liquid-gas [mN/m]
[1], 298.4 K | – | 29.1
[1], 307.7 K | – | 28.5
[1], 318 K | – | 27.7
[1], 328.9 K | – | 26.8
[1], 339.2 K | – | 26
[1], 344.3 K | – | 25.6
[2], 298.15 K | 1.45342 | –
[2], 303.15 K | 1.45194 | –
[2], 308.15 K | 1.45041 | –
[2], 313.15 K | 1.44877 | –
[2], 318.15 K | 1.44699 | –
[2], 323.15 K | 1.44498 | –
[2], 328.15 K | 1.4431 | –
[2], 333.15 K | 1.44129 | –
[2], 338.15 K | 1.43948 | –
[2], 343.15 K | 1.43763 | –
[2], 348.15 K | 1.43579 | –
[2], 353.15 K | 1.43397 | –

CCCCCCCCCCCCCC[P+](CCCCCC)(CCCCCC)CCCCCC.CS(=O)(=O)[O-] [trihexyltetradecylphosphonium methanesulfonate]
Conditions | refractive index | surface tension liquid-gas [mN/m]
[3], 298.3 K | – | 31
[3], 308 K | – | 30.3
[3], 318.5 K | – | 29.6
[3], 328.8 K | – | 28.8
[3], 338.7 K | – | 28.2
[3], 343.5 K | – | 27.9
[4], 283.15 K | 1.47813 | –
[4], 288.15 K | 1.47668 | –
[4], 293.15 K | 1.47507 | –
[4], 298.15 K | 1.47346 | –
[4], 303.15 K | 1.47186 | –
[4], 308.15 K | 1.47025 | –
[4], 313.15 K | 1.46865 | –
[4], 318.15 K | 1.46702 | –
[4], 323.15 K | 1.4654 | –
[4], 328.15 K | 1.4638 | –
[4], 333.15 K | 1.46217 | –
[4], 338.15 K | 1.46053 | –
[4], 343.15 K | 1.45895 | –
[4], 348.15 K | 1.45727 | –
[4], 353.15 K | 1.45572 | –

CCCCCCCCCCCCCC[P+](CCCCCC)(CCCCCC)CCCCCC.CS(=O)(=O)[O-] [trihexyltetradecylphosphonium methanesulfonate] + O
w2 = 0.1181
Conditions | refractive index | surface tension liquid-gas [mN/m]
[1], 298.6 K | – | 31.15
[1], 307.8 K | – | 30.45
[1], 318 K | – | 29.81
[1], 323.8 K | – | 29.09
[1], 338.2 K | – | 28.29
[1], 342.7 K | – | 28.05
[2], 298.15 K | 1.45621 | –
[2], 303.15 K | 1.4546 | –
[2], 308.15 K | 1.45281 | –
[2], 313.15 K | 1.45111 | –
[2], 318.15 K | 1.44947 | –
[2], 323.15 K | 1.44795 | –
[2], 328.15 K | 1.44655 | –
[2], 333.15 K | 1.44532 | –
[2], 338.15 K | 1.44427 | –
[2], 343.15 K | 1.44334 | –
[2], 348.15 K | 1.44253 | –
[2], 353.15 K | 1.44181 | –
